From patent US7208509B2, “Non-nucleoside reverse transcriptase inhibitors” (Roche Palo Alto LLC, priority 2003, dated 2007)
pIC50: −log10 of the molar value.

What follows are molecules tested against HIV-1 RT (Human immunodeficiency virus type 1 group M subtype B, UniProt P03366) (assay: HIV Reverse Transcriptase Assay: Inhibitor IC50 Determination). Conditions: purified recombinant enzyme, poly(rA)/oligo(dT)16 template-primer, [3H] dTTP, 37° C. for 30 min; read-out: RT inhibition IC50.
Format: biochemical
Method: HIV Reverse Transcriptase Assay: Inhibitor IC50 Determination
HIV-1 RT assay was carried out in 96-well Millipore MultiScreen MADVNOB50 plates using purified recombinant enzyme and a poly(rA)/oligo(dT)16 template-primer in a total volume of 50 μL. The assay constituents were 50 mM Tris/HCl, 50 mM NaCl, 1 mM EDTA, 6 mM MgCl2, 5 μM dTTP, 0.15 μCi [^3H] dTTP, 5 μg/ml poly (rA) pre annealed to 2.5 μg/ml oligo (dT)16 and a range of inhibitor concentrations in a final concentration of 10% DMSO. Reactions were initiated by adding 4 nM HIV-1 RT and after incubation at 37° C. for 30 min, they were stopped by the addition of 50 μl ice cold 20% TCA and allowed to precipitate at 4° C. for 30 min. The precipitates were collected by applying vacuum to the plate and sequentially washing with 3×200 μl of 10% TCA and 2×200 μl 70% ethanol. Finally, the plates were dried and radioactivity counted in a Packard TopCounter after the addition of 25 μl scintillation fluid per well. IC50's were calculated by plotting % inhibition versus log10 inhibitor concentrations.
With `CCn1c(Cc2ccc(Cl)c(Oc3cccc(Cl)c3)c2)n[nH]c1=O` [Compound 9, 5-[4-Chloro-3-(3-chloro-phenoxy)-benzyl]-4-ethyl-2,4-dihydro-[1,2,4]triazol-3-one] the pIC50 was 6.35. Molecule `CCn1c(Cc2ccc(Cl)c(Oc3ccccc3Cl)c2)n[nH]c1=O` [Compound 7, 5-[4-Chloro-3-(2-chloro-phenoxy)-benzyl]-4-ethyl-2,4-dihydro-[1,2,4]triazol-3-one] has a pIC50 of 6.35. For `O=c1[nH]nc(Cc2ccc(Cl)c(Oc3ccccc3Cl)c2)s1` [Compound 4, 5-[4-Chloro-3-(2-chloro-phenoxy)-benzyl]-3H-[1,3,4]thiadiazol-2-one], the pIC50 was 6.71. In the case of `Cn1c(Cc2ccc(Cl)c(Oc3cccc(Cl)c3)c2)n[nH]c1=O` [Compound 8, 5-[4-Chloro-3-(3-chloro-phenoxy)-benzyl]-4-methyl-2,4-dihydro-[1,2,4]triazol-3-one], the pIC50 was 6.54.
